“Also recorded” adds a separate entry of the source.
System: HaCat cells
Assay: Incorporation of BrdU in the DNA of human keratinocytes after radiation with ultraviolet light
Assay type: cell-based
Experimental: Culture of the HaCat line
The HaCat line is an immortalized line of normal human keratinocytes. These cells grow in a culture medium consisting of Hanks liquid to which 5% of foetal bovine serum and 2% of penicillin-streptomycin is added at 37° C. in a CO2 atmosphere.
To determine the replication rate, the cells were grown in microplates at a density of 2*10^4 cells per matrix. After 24 hours of treatment, the media was renewed and the cultures were incubated for 24 hours at 37° C. with different concentrations of the extracts and different concentrations of the curcumin and psoralen. Parallel controls were carried out with the solvent (ethanol 0.1%). The incorporation of BrdU was determined with the ELISA test.
The cells were radiated with UVA light at an intensity of 1 J/cm^2 and the incorporation of BrdU was then analysed.

[1] = after UVA radiation, human keratinocytes

## O=c1ccc2cc3ccoc3cc2o1 [psoralen]
10 ng/ml
  toxicity at the dose giving the same photosensitivisation as Curcuma extracts: toxic doses; also recorded: toxic and mutagenic effects are produced
After UV radiation, BrdU incorporation
  dose required to produce the same level of photosensitivisation as Curcuma extracts: 10 ng/mL

## COc1cc(/C=C/C(=O)CC(=O)/C=C/c2ccc(O)c(OC)c2)ccc1O [curcumin]
[1]
  amount for 20 % incorporation of BrdU: 1200 ng
  amount for 40 % incorporation of BrdU: 1000 ng
  amount for 60 % incorporation of BrdU: 800 ng
  amount for 80 % incorporation of BrdU: 600 ng
